Measurements published in US10781185B2, “Heterocyclic compounds for the inhibition of PASK” (BioEnergenix LLC, priority 2009, dated 2020).

Biological target: PASK (UniProt # Q96RG2; human recombinant N-terminal GST tagged construct, residues 879-1323) (Homo sapiens (Human), UniProt Q96RG2)
Assay: PASK ATP Radiochemical Assay
Type: biochemical
Settings: 33P-ATP radiochemical, Myelin Basic Protein substrate; read-out: IC50 Kinase Domain
Method: PASK ATP Radiochemical Assay
Test compounds in DMSO are then added and the mixture, followed by delivery of ^33P-ATP (specific activity 0.01 μCi/μl final) to initiate the reaction. […] The entire reaction mixture is washed through onto a P81 Phosphocellulose paper and washed three times for 10 minutes in 75 mM phosphoric acid and once in methanol prior to drying and scintillation counting.

PASK (UniProt # Q96RG2; human recombinant N-terminal GST tagged construct, residues 879-1323) (Homo sapiens (Human), UniProt Q96RG2), sequence (Q96RG2 879-1323, change not shown): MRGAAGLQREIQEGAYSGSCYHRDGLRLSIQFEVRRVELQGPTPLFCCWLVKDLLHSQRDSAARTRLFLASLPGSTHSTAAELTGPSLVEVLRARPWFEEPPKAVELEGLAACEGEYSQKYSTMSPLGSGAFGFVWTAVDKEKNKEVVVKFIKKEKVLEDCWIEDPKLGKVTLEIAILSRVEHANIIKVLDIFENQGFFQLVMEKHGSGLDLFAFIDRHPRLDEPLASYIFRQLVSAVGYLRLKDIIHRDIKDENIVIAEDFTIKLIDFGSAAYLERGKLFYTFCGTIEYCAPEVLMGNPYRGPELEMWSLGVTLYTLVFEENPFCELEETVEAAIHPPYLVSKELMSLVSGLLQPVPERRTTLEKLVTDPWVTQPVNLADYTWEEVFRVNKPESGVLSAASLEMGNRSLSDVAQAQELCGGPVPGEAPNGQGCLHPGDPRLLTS

SMILES | IC50 [µM]
O=C(O)c1ccc2nc(-c3ccccc3)c(N3CCN(c4ccc(C(F)(F)F)cc4)CC3)nc2c1 [Example 1, 2-Phenyl-3-(4-(4-(trifluoromethyl)phenyl)piperazin-1-yl)quinoxaline-6-carboxylic acid] | < 10
O=C(O)c1ccc2nc(-c3ccccc3)c(N3CCN(c4ccccn4)CC3)nc2c1 [Example 2, 2-Phenyl-3-(4-(pyridin-2-yl)piperazin-1-yl)quinoxaline-6-carboxylic acid] | < 10
O=C(O)c1ccc2nc(-c3ccccc3)c(N3CCN(c4cccc(Cl)c4)CC3)nc2c1 [Example 3, 3-(4-(3-Chlorophenyl)piperazin-1-yl)-2-phenylquinoxaline-6-carboxylic acid] | < 10
CN1CCN(c2nc3cc(C(=O)O)ccc3nc2-c2ccccc2)CC1 [Example 4, 3-(4-Methylpiperazin-1-yl)-2-phenylquinoxaline-6-carboxylic acid] | > 10
O=C(O)c1ccc2nc(-c3ccccc3)c(N3CCN(c4ccccc4)CC3)nc2c1 [Example 6, 2-Phenyl-3-(4-phenylpiperazin-1-yl)quinoxaline-6-carboxylic acid] | < 10
O=C(O)c1ccc2nc(-c3ccccc3)c(N3CCC(c4ccc(C(F)(F)F)cc4)CC3)nc2c1 [Example 7, 2-Phenyl-3-(4-(4-(trifluoromethyl)phenyl)piperidin-1-yl)quinoxaline-6-carboxylic acid] | < 10
O=C(O)c1ccc2nc(-c3ccccc3)c(N3CCN(c4ccc(Cl)cc4)CC3)nc2c1 [Example 8, 3-(4-(4-Chlorophenyl)piperazin-1-yl)-2-phenylquinoxaline-6-carboxylic acid] | < 10
COc1ccc(N2CCN(c3nc4cc(C(=O)O)ccc4nc3-c3ccccc3)CC2)cc1 [Example 9, 3-(4-(4-Methoxyphenyl)piperazin-1-yl)-2-phenylquinoxaline-6-carboxylic acid] | < 10
O=C(O)c1ccc2nc(-c3ccccc3)c(N3CCC(c4cccc(Cl)c4)CC3)nc2c1 [Example 10, 3-(4-(3-Chlorophenyl)piperidin-1-yl)-2-phenylquinoxaline-6-carboxylic acid] | < 10
O=C(O)c1ccc2nc(-c3ccccc3)c(N3CCCCC3)nc2c1 [Example 12, 2-Phenyl-3-(piperidin-1-yl)quinoxaline-6-carboxylic acid] | < 10

Biological target: PASK (Homo sapiens (Human), UniProt Q96RG2)
Assay: PAS Kinase FRET Assay
Type: biochemical
Settings: TR-FRET, Ulight-peptide substrate; read-out: IC50 Kinase Domain
Source text: PAS Kinase FRET Assay The aim of the FRET assay is to determine the inhibition potential of test compounds on targeted kinase. This assay platform provides a homogenous screening method for measuring kinase activity by quantitating the amount of phospho-substrate in solution following a kinase reaction. In the presence of kinase and ATP, the Ulight-peptide is phosphorylated and captured by an anti-phospho-substrate antibody, which brings the Eu chelate donor and Ulight acceptor dyes into close proximity. […] The contents of the plate were and incubated at RT for 1 h. The reaction was stopped by adding 5 μl of stop solution to each test well followed by mixing and incubation at RT for 10 minutes. 5 μl of detection mix (detection antibody diluted in detection buffer) was added; the contents of the plate were mixed and then incubated in the dark for 1 hour at RT. […] The results were graphed to calculate the EC50. Titration of ATP at the EC50 concentration of kinase to determine ATP Km,app. was performed using the following method. […] The contents of the plate were and incubated at RT for 1 h. The reaction was stopped by adding 5 μl of stop solution to each test well followed by mixing and incubation at RT for 10 minutes. 5 μl of detection mix (detection antibody diluted in detection buffer) was added; the contents of the plate were mixed and then incubated in the dark for 1 hour at RT. […] The results were graphed to calculate the EC50 as the ATP Km,app. […] If compound is not soluble under this condition, it was diluted to 3 mM. Kinase reaction buffer was prepared containing 10 mM MgCl2, 50 mM HEPES, 1 mM EGTA, 0.01% TWEEN-20, 2 mM DTT. […] As a positive control, 2.5 μl of positive compound was added to assay wells, and 2.5 μl of DMSO to assay wells as vehicle control. Kinase solution was prepared in reaction buffer at 2× final assay concentration. Kinase solution (5 μl) was added to each well of the assay plate. The substrate and ATP solution was prepared in kinase reaction buffer at 4× final assay concentration. The kinase reaction was started by adding 2.5 μl of substrate+ATP mix solution to each well of the assay plate. The plate is mixed on a plate shaker; then covered and allowed to react for 2 hours in the dark at 25° C. without shaking. The reaction was stopped by adding 5 μl of stop solution to each test well followed by mixing and incubation at RT for 10 minutes in the dark. 5 μl of detection mix (detection antibody diluted in detection buffer) was added; the contents of the plate were mixed and then incubated in the dark for 1 hour at RT.

PASK (Homo sapiens (Human), UniProt Q96RG2), sequence (Q96RG2 999-1251): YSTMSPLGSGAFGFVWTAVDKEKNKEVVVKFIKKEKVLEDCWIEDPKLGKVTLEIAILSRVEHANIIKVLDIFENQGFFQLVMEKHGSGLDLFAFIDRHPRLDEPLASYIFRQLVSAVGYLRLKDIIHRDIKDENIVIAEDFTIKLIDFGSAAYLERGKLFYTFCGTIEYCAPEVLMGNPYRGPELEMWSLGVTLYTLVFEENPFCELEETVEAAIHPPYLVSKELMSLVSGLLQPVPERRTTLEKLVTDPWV

SMILES | IC50 [µM]
O=C1CN(c2nc3cc(C(=O)O)ccc3nc2-c2ccc(F)cc2)CCN1 [Example 103, 2-(4-Fluorophenyl)-3-(3-oxopiperazin-1-yl)quinoxaline-6-carboxylic acid] | ≤ 10
CN(c1nc2cc(C(=O)O)ccc2nc1-c1ccc(F)cc1)C1CCOCC1 [Example 105, 2-(4-Fluorophenyl)-3-(methyl(tetrahydro-2H-pyran-4-yl)amino)quinoxaline-6-carboxylic acid] | ≤ 10
CN(c1nc2cc(C(=O)O)ccc2nc1-c1ccc(F)cc1)C1CCCC1 [Example 106, 3-(Cyclopentyl(methyl)amino)-2-(4-fluorophenyl)quinoxaline-6-carboxylic acid] | ≤ 10
Cc1ccc(-c2nc3ccc(C(=O)O)cc3nc2N(C)C(C)C)s1 [Example 107, 3-(Isopropyl(methyl)amino)-2-(5-methylthiophen-2-yl)quinoxaline-6-carboxylic acid] | ≤ 10
CC(C)N(C)c1nc2cc(C(=O)O)ccc2nc1-c1cccs1 [Example 108, 3-(Isopropyl(methyl)amino)-2-(thiophen-2-yl)quinoxaline-6-carboxylic acid] | ≤ 10
CC(=O)N(C)C1CCN(c2nc3cc(C(=O)O)ccc3nc2-c2ccc(F)cc2)CC1 [Example 111, 2-(4-Fluorophenyl)-3-(4-(N-methylacetamido)piperidin-1-yl)quinoxaline-6-carboxylic acid] | ≤ 10
CN1CCN(c2nc3cc(C(=O)O)ccc3nc2-c2ccc(F)cc2)CC1=O [Example 112, 2-(4-Fluorophenyl)-3-(4-methyl-3-oxopiperazin-1-yl)quinoxaline-6-carboxylic acid] | ≤ 10
